Assay results as given in patent US20230066286A1, “DEUTERATED TRYPTAMINE DERIVATIVES AND METHODS OF USE” (priority 2020, published 2023).

Legend:
[1] = Blood-to-plasma ratio (BPR), parent drug in brain and plasma of rats; format: in vivo, rat; details: % change vs. non-deuterated material
Description: (§1) The key PK parameters (presented as a % change vs. non-deuterated materials) are presented in Table 3 to include half-life (T½), area under the curve (AUC), bioavailability (F) and blood-to-plasma ration (BPR). Pharmacokinetics of the deuterated tryptamines was studied in rats. In a typical experiment, run as a cassette dosing, two groups of 5 Wistar female rats (200-250 g) with surgically inserted jugular vein catheter (Charles River, Andover, MA) were fasted for 12 h and then administered 5 mg/kg of the deuterated and 5 mg/kg of the related non-deuterated analog, by oral gavage or via a catheter for each group. At time points 0, 15, 30, 60 min, and 2, 4, 8, and 24 h, the resulting plasma was analyzed for the parent molecule using LC/MS spectroscopy. Two separate groups of 5 animals were used for determining blood-to-plasma ratio (BPR). Each group was sacrificed at time points 15 and 30 min, respectively, and the concentration of the parent drug was determined in the […] and plasma by LC/MS spectroscopy.

5-HT1A [2] = biological target: T1, 5-HT1A (Homo sapiens, UniProt P08908); experiment: Receptor function assay, Gi stimulation (reduction in cAMP levels); format: cell-based
T1 construct: expressed in transfected cells; host or cells: CHO-K1 or HEK293
T1 sequence (P08908 1-422): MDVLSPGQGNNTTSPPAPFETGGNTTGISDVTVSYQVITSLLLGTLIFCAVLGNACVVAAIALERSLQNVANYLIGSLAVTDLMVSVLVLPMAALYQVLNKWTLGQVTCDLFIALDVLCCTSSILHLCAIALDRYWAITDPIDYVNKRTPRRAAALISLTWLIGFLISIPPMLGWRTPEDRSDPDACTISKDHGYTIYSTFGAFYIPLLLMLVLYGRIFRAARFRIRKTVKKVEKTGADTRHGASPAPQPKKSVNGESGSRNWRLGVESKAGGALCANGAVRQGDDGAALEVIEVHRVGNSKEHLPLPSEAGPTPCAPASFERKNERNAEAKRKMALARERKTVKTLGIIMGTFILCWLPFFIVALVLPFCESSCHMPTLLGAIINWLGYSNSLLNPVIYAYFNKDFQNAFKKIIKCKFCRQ
Description: Receptor Function Assays: 5-HT1A receptor-mediated Gi stimulation (reduction in cyclic adenosine monophosphate (cAMP) levels) and 5-HT2(A,B,C) receptor-mediated Gq stimulation (phosphoinositide hydrolysis leading to the production of inositol phosphate 1 (IP1))-canonical signaling pathways—were measured as previously described (Canal et al., 2013), for example, with a homogeneous time-resolved fluorescence (HTRF) capable microplate reader (e.g., Mithras LB 940, Berthold) using commercially-available kits employing Fluorescence Resonance Energy Transfer (FRET) technology (e.g., LANCE Ultra cAMP TR-FRET (PerkinElmer) and IP-One HTRF (Cisbio) kits). Briefly, CHO-K1 or HEK293 cells expressing serotonergic receptors were incubated with test compounds in stimulation buffer. After equilibration, the reaction was terminated with the donor and acceptor fluorescent conjugates in lysis buffer, and FRET was measured. Data were fit to non-linear curves to calculate potencies (e.g., EC50) and efficacies (e.g., EMAX), relative to positive controls (e.g., serotonin).

[3] = PK study in rats, cassette dosing; format: in vivo, rat; details: % change vs. non-deuterated material, 5 mg/kg
Description: as §1

5-HT1A [4] = biological target: T1, 5-HT1A; experiment: Receptor affinity assay, radioligand competition binding
Description: Receptor Affinity Assays: 5-HT1A, 5-HT2(A,B,C) receptor affinities were determined by radioligand competition binding. Membranes from CHO-K1 or HEK293 cells expressing serotonergic receptors were collected and incubated in assay buffer with Kd concentrations of radioligands and tests compounds that compete for receptor binding sites. After equilibration, the reaction was terminated by collecting ligand-receptor-membrane complexes (Microbeta, PerkinElmer), and radioactivity was measured by a scintillation counter (Microbeta2, PerkinElmer). Data were fit to non-linear curves, and Ki values were calculated per the Cheng-Prusoff equation.

[2H]C([2H])(Cc1c[nH]c2cccc(O)c12)N(C)C [PI-α,α-d2]
BPR, 15 min, deuterium kinetic isotope effect (% change) ([1]; rats sacrificed at 15 min): 100%
BPR, 30 min, deuterium kinetic isotope effect (% change) ([1]; rats sacrificed at 30 min): 150%
EC50 (5-HT1A [2]): 200 nM
AUC, deuterium kinetic isotope effect (% change) ([3]; oral gavage or via catheter): 75%
T½, deuterium kinetic isotope effect (% change) ([3]; oral gavage or via catheter): 50%
bioavailability ([3]; female, Wistar, rat, plasma, oral, read-out: F (bioavailability), deuterium kinetic isotope effect (% change)): 45%
Ki (5-HT1A [4]): 510 nM
